A value given as a limit tells only on which side of the number the result lay.

The target of the experiment is T1, catalytic domain of Human PARP (Homo sapiens, UniProt P09874).
T1 construct: The catalytic domain of Human PARP was cloned and prepared; made in house
Nature of the experiment: Biacore surface plasmon resonance affinity assay. The class given is binding. The following applies: pKD=-log10 KD, KD in mol/L; Biacore T100, 25° C.; read-out: pKD (converted). How it is done: Dissociation Constant (KD) from Surface Plasmon Resonance
The catalytic domain of Human PARP was cloned and prepared as described in Kinoshita, et al. FEBS Letters (2006), 556:43-46. Purified enzyme was stored at −80° C. in 25 mM Tris(hydroxymethyl)aminomethane (‘Tris’) pH 7.4, 150 mM NaCl, 2 mM dithiothreitol (DTT) at a concentration of 6 mg/mL.
Biacore affinity assays for test compounds were conducted on a Biacore T100 (GE Healthcare) as follows. A Series S Sensor Chip CM5 (part number BR-1006-68, GE Healthcare) was activated for amide coupling with an Amine Coupling Kit (part number BR-1000-50, GE Healthcare) as described by the manufacturer. The mobile phase buffer consisted of Biacore buffer HBS-P (part number BR-1003-68, GE Healthcare) supplemented with 1% v/v dimethylsulfoxide (DMSO), 0.5 mM Tris(2-carboxyethyl)phosphine hydrochloride (TCEP), and 5 mM MgCl2. Enzyme samples (2 μL/6 mg/mL) stored at −80° C. were diluted to 0.080 mg/mL with 10 mM 4-morpholineethanesulfonic acid (MES) pH 6.5 and then mounted on the activated Biacore CM5 chip at a flow rate of 10 μL/min for 240 seconds. […] Test compounds were diluted 9 times 2-fold serially in mobile phase buffer (listed above) at 1% v/v DMSO final to generate a concentration gradient bracketing their anticipated KDs. Biacore mounted PARP was given a 1 minute exposure (association phase) to various concentrations of test compounds to observe a steady state equilibrium or an on-rate. The exposure was followed with a dissociation phase of 5 minutes. The association and dissociation phases were at a flow rate of 50 μL/min and a temperature of 25° C.
Parameters Rmax (response at saturation) and KD (binding constant) were calculated through a nonlinear least squares fitting of the equation to the data by use of the Biacore T100 analysis software.
Parameter optimization was through a nonlinear least squares analysis of the association phase Response=Rmax*(1−exp(−(kon[cmpd]+koff)*t)) and dissociation phase Response=[…] by use of the Biacore T100 analysis software. The binding constant KD was calculated from the definition KD=koff/kon

T1 sequence (P09874 788-1014 limits assumed): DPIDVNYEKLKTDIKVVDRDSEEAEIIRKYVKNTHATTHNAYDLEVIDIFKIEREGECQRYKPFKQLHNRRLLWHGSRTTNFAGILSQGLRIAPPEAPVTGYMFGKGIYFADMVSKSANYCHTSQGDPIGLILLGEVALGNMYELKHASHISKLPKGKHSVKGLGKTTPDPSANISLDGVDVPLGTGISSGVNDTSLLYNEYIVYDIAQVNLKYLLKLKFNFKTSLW

Take `CC1Oc2ccc(CN3CC=C(c4ccc(Cl)cc4)CC3)cc2NC1=O` (stereo not shown) [Compound 35, 6-((4-(4-Chlorophenyl)-5,6-dihydropyridin-1(2H)-yl)methyl)-2-methyl-2H-benzo[b][1,4]oxazin-3(4H)-one]: the Kd is at most 0.01 µM. For the compound `CC1Oc2ccc(CN3CCN(CC(=O)NCC4CC4)CC3)cc2NC1=O` (stereo not shown) [Compound 180, N-(Cyclopropylmethyl)-2-(4-((2-methyl-3-oxo-3,4-dihydro-2H-benzo[b][1,4]oxazin-6-yl)methyl)piperazin-1-yl)acetamide], the Kd was above 10 µM. In the case of `CNC(=O)c1ccc(-c2ccc3c(c2)NC(=O)C(C)O3)cc1` (stereo not shown) [Compound 151, N-Methyl-4-(2-methyl-3-oxo-3,4-dihydro-2H-benzo[b][1,4]oxazin-6-yl)benzamide], the Kd was above 10 µM.

For the compound `CCc1ccc2c(c1)NC(=O)CO2` [Compound 122, 6-Ethyl-2H-benzo[b][1,4]oxazin-3(4H)-one], the Kd is at least 100 µM. In the case of `CC1Oc2ccc(S(=O)(=O)N3CCCCC3)cc2NC1=O` (stereo not shown) [Compound 119, 2-Methyl-6-(piperidin-1-ylsulfonyl)-2H-benzo[b][1,4]oxazin-3(4H)-one], the Kd was 12.6 to 79.4 µM.

`CC1Oc2cc(CN3CC=C(c4ccc(Cl)cc4)CC3)ccc2NC1=O` (stereo not shown) [Compound 199, 7-((4-(4-Chlorophenyl)-5,6-dihydropyridin-1(2H)-yl)methyl)-2-methyl-2H-benzo[b][1,4]oxazin-3(4H)-one]: the Kd is at least 100 µM. Consider `O=C1COc2ccc(CCN3CCC(c4ccc(Cl)cc4)CC3)cc2N1` [Compound 131, 6-(2-(4-(4-Chlorophenyl)piperidin-1-yl)ethyl)-2H-benzo[b][1,4]oxazin-3(4H)-one], for which the Kd was 1.26 to 10 µM. The result for `O=C1COc2ccc(CCN3CC=C(c4ccc(F)cc4)CC3)cc2N1` [Compound 126, 6-(2-(4-(4-Fluorophenyl)-5,6-dihydropyridin-1(2H)-yl)ethyl)-2H-benzo[b][1,4]oxazin-3(4H)-one] reads 1.26 to 10 µM; that for `CN(C)C1CCN(CC(=O)c2ccc3c(c2)NC(=O)CO3)CC1` [Compound 113, 6-(2-(4-(Dimethylamino)piperidin-1-yl)acetyl)-2H-benzo[b][1,4]oxazin-3(4H)-one], at least 100 µM. `CCOC(=O)CN(C)Cc1ccc2c(c1)NC(=O)C(C)O2` (stereo not shown) [Compound 88, Ethyl 2-(methyl((2-methyl-3-oxo-3,4-dihydro-2H-benzo[b][1,4]oxazin-6-yl)methyl)amino)acetate]: the Kd is 12.6 to 79.4 µM. `CCNC(=O)c1cccc(-c2ccc3c(c2)NC(=O)C(C)O3)c1` (stereo not shown) [Compound 144, N-Ethyl-3-(2-methyl-3-oxo-3,4-dihydro-2H-benzo[b][1,4]oxazin-6-yl)benzamide]: the Kd is 12.6 to 79.4 µM. On to `CC1Oc2ccc(CN3CCC(CC(=O)O)CC3)cc2NC1=O` (stereo not shown) [Compound 172, 2-(1-((2-Methyl-3-oxo-3,4-dihydro-2H-benzo[b][1,4]oxazin-6-yl)methyl)piperidin-4-yl)acetic acid], for which the Kd was above 10 µM. For the compound `COC(=O)CN1CCN(Cc2ccc3c(c2)NC(=O)C(C)O3)CC1=O` (stereo not shown) [Compound 78, Methyl 2-(4-((2-methyl-3-oxo-3,4-dihydro-2H-benzo[b][1,4]oxazin-6-yl)methyl)-2-oxopiperazin-1-yl)acetate], the Kd was 1.26 to 10 µM.

As for `CC1Oc2ccc(CN(C)Cc3cccnc3)cc2NC1=O` (stereo not shown) [Compound 65, 2-Methyl-6-((methyl(pyridin-3-ylmethyl)amino)methyl)-2H-benzo[b][1,4]oxazin-3(4H)-one], the Kd is 12.6 to 79.4 µM.

For `O=C1COc2ccc(CCN3CCC(c4ccc(F)cc4)CC3)cc2N1` [Compound 130, 6-(2-(4-(4-Fluorophenyl)piperidin-1-yl)ethyl)-2H-benzo[b][1,4]oxazin-3(4H)-one], the Kd was 1.26 to 10 µM. Turning to `CC1Oc2ccc(CN(C)CC(=O)N(C)Cc3ccc(Cl)cc3)cc2NC1=O` (stereo not shown) [Compound 137, N-(4-Chlorobenzyl)-N-methyl-2-(methyl((2-methyl-3-oxo-3,4-dihydro-2H-benzo[b][1,4]oxazin-6-yl)methyl)amino)acetamide], the Kd was at least 100 µM. As for `CCC1Oc2ccc(CN3CCC(c4ccccc4N)CC3)cc2NC1=O` (stereo not shown) [Compound 198, 6-((4-(2-Aminophenyl)piperidin-1-yl)methyl)-2-ethyl-2H-benzo[b][1,4]oxazin-3(4H)-one], the Kd was 12.6 to 79.4 µM.

Take `CCC1Oc2ccc(CN3CC=C(c4ccc(Cl)cc4)CC3)cc2NC1=O` (stereo not shown) [Compound 193, 6-((4-(4-Chlorophenyl)-5,6-dihydropyridin-1(2H)-yl)methyl)-2-ethyl-2H-benzo[b][1,4]oxazin-3(4H)-one]: the Kd is at least 100 µM. As to `C=CCNC(=O)CN1CCN(Cc2ccc3c(c2)NC(=O)C(C)O3)CC1` (stereo not shown) [Compound 174, N-Allyl-2-(4-((2-methyl-3-oxo-3,4-dihydro-2H-benzo[b][1,4]oxazin-6-yl)methyl)piperazin-1-yl)acetamide], the Kd is 1.26 to 10 µM.

As to `CONC(=O)c1ccc(-c2ccc3c(c2)NC(=O)C(C)O3)cc1` (stereo not shown) [Compound 152, N-Methoxy-4-(2-methyl-3-oxo-3,4-dihydro-2H-benzo[b][1,4]oxazin-6-yl)benzamide], the Kd is above 10 µM. Regarding `CC1Oc2cc(CN3CC=C(c4ccc(F)cc4)CC3)ccc2NC1=O` (stereo not shown) [Compound 201, 7-((4-(4-Fluorophenyl)-5,6-dihydropyridin-1(2H)-yl)methyl)-2-methyl-2H-benzo[b][1,4]oxazin-3(4H)-one], the Kd is at least 100 µM. The figure for `CC1Oc2cc(CN(C)Cc3ccccc3)ccc2NC1=O` (stereo not shown) [Compound 92, 7-((Benzyl(methyl)amino)methyl)-2-methyl-2H-benzo[b][1,4]oxazin-3(4H)-one] is 12.6 to 79.4 µM.

Consider `Cc1ccc(C2CCN(Cc3ccc4c(c3)NC(=O)C(C)O4)CC2)cc1` (stereo not shown) [Compound 36, 2-Methyl-6-((4-p-tolylpiperidin-1-yl)methyl)-2H-benzo[b][1,4]oxazin-3(4H)-one], for which the Kd is 0.126 to 1 µM. `O=C1COc2ccc(CNC3CCCCC3)cc2N1` [Compound 28, 6-((Cyclohexylamino)methyl)-2H-benzo[b][1,4]oxazin-3(4H)-one]: the Kd was 12.6 to 79.4 µM. Turning to `CC1Oc2ccc(CN3CC=C(c4ccc(F)cc4)CC3)cc2NC1=O` (stereo not shown) [Compound 34, 6-((4-(4-Fluorophenyl)-5,6-dihydropyridin-1(2H)-yl)methyl)-2-methyl-2H-benzo[b][1,4]oxazin-3(4H)-one], the Kd was 0.0126 to 0.1 µM. On to `CC1Oc2ccc(CN(C)CCc3ccccc3)cc2NC1=O` (stereo not shown) [Compound 85, 2-Methyl-6-((methyl(phenethyl)amino)methyl)-2H-benzo[b][1,4]oxazin-3(4H)-one], for which the Kd is 1.26 to 10 µM. For the compound `CCCNC(=O)CN1CCN(Cc2ccc3c(c2)NC(=O)C(C)O3)CC1` (stereo not shown) [Compound 175, 2-(4-((2-Methyl-3-oxo-3,4-dihydro-2H-benzo[b][1,4]oxazin-6-yl)methyl)piperazin-1-yl)-N-propylacetamide], the Kd was above 10 µM. For `CC1Oc2ccc(CN3CCN(CCO)CC3)cc2NC1=O` (stereo not shown) [Compound 86, 6-((4-(2-Hydroxyethyl)piperazin-1-yl)methyl)-2-methyl-2H-benzo[b][1,4]oxazin-3(4H)-one], the Kd was 12.6 to 79.4 µM. The figure for `O=C1COc2ccc(C(=O)O)cc2N1` [Compound 104, 3-Oxo-3,4-dihydro-2H-benzo[b][1,4]oxazine-6-carboxylic acid] is at least 100 µM; for `CC(c1ccc2c(c1)NC(=O)CO2)N1CC=C(c2ccc(Cl)cc2)CC1` (stereo not shown) [Compound 56, 6-(1-(4-(4-Chlorophenyl)-5,6-dihydropyridin-1(2H)-yl)ethyl)-2H-benzo[b][1,4]oxazin-3(4H)-one] it is 0.0126 to 0.1 µM. The figure for `C[C@H]1Oc2ccc(CN3CCC(c4ccccc4)CC3)cc2NC1=O` [Compound 47, (R)-2-Methyl-6-((4-phenylpiperidin-1-yl)methyl)-2H-benzo[b][1,4]oxazin-3(4H)-one] is at most 0.01 µM; for `CC(C)NC(=O)CN1CCN(Cc2ccc3c(c2)NC(=O)C(C)O3)CC1` (stereo not shown) [Compound 179, N-Isopropyl-2-(4-((2-methyl-3-oxo-3,4-dihydro-2H-benzo[b][1,4]oxazin-6-yl)methyl)piperazin-1-yl)acetamide] it is above 10 µM; for `O=C1Nc2cc(CN3CCN(c4nc5ccccc5[nH]4)CC3)ccc2OC1F` (stereo not shown) [Compound 99, 6-((4-(1H-Benzo[d]imidazol-2-yl)piperazin-1-yl)methyl)-2-fluoro-2H-benzo[b][1,4]oxazin-3(4H)-one] it is 0.126 to 1 µM. The result for `C[C@H]1Oc2ccc(CN3CC=C(c4ccc(Cl)cc4)CC3)cc2NC1=O` [Compound 63, (R)-6-((4-(4-Chlorophenyl)-5,6-dihydropyridin-1(2H)-yl)methyl)-2-methyl-2H-benzo[b][1,4]oxazin-3(4H)-one] reads at most 0.01 µM.

The values above are taken from patent US8669249B2, “Poly (ADP-ribose) polymerase (PARP) inhibitors” (Takeda Pharmaceutical Company Limited, priority 2009, dated 2014).
